Tests used:
[1] = system: Candida albicans, ATCC 10231; experiment: Microbiology challenge test, log drop; format: cell-based; conditions: for Log drop at 6 hour: Table 6: Myristylamine 0.001 % w/w
Description: (§1) The following is the procedure by which various antimicrobial agents and solutions are tested for their ability to reduce microbial loads over short periods of time, typically 24 hours and less. The procedure is a basic microbiology challenge test, which involves the inoculation of test product aliquots with a known number of viable cells of several test organisms, and assay for the survivors at various time intervals. The results are used to calculate log drops at soak times and construct kill-curves (graphs of survivors versus time) if desired.
(§2) Candida albicans, ATCC 10231, is one of five organisms specified per FDA and ISO/CLI tests for the testing of contact lens disinfectants (FDA Premarket Notification (510k) Guidance Document for Contact Lens Care Products, Appendix B, Apr. 1, 1997 and ISO/FDIS 14729: Ophthalmic optics-Contact lens care products-Microbiological requirements and test methods for products and regimens for hygienic management of contact lenses, January 2001). Contact lens disinfectants are also known as contact lens multi-purpose solutions when they are used for rinsing, cleaning, disinfection, storage and rewetting contact lenses. The five FDA/ISO specified test organisms are listed below: • Serratia marcescens, ATCC 13880 • Staphylococcus aureus, ATCC 6538 • Pseudomonas aeruginosa, ATCC 9027 • Candida albicans, ATCC 10231 • Fusarium solani, ATCC 36031
(§3) The specific test procedure for testing antimicrobial activity against the five FDA/ISO specified test organisms is as follows (C. albicans is provided as a specific example): Test samples are sterile-filtered through a 0.22 micron sterile filter into sterile plastic high density polyethylene bottles or plastic flasks. A 10-mL aliquot of test sample is aseptically transferred into a sterile polystyrene plastic test tube. Sterile saline (0.90 w/v % NaCl) with 0.05 w/v % Polysorbate 80 (SS+TWEEN) is transferred into a separate control tube. All samples and control are stored at 20-25° C. throughout the duration of the test.
(§4) Test cultures of Candida albicans, ATCC 10231 are prepared in the conventional manner. Candida albicans cultures are grown on agar slants from primary frozen, lyophilized or “Culti-loop®” cultures. Three mL of sterile 0.9% saline is used to gently dislodge culture growth from the agar surface. The resulting harvest is transferred to an appropriate screw cap test tube containing glass beads and vortexed for approximately one minute. The vortexed harvest is diluted as needed with sterile 0.9% saline to prepare the culture inoculum with a concentration of 1×10e8 CFU/mL. Fifty microliters of culture inoculum is added to 10.0 mL of each test sample and control, so that the final inoculum level is in the range of 1×10e5 to 1×10e6 CFU(colony forming units) per mL of Candida albicans, ATCC 10231. Each sample and control tube is vortexed briefly to disperse the inoculum. Contact time intervals for testing activity against Candida are typically 4 or 6 hours, to conform to the intended product label instructions for contact lens soak time.
(§5) Aerobic Plate Count Methods are performed in order to quantitate test samples for their levels of survivors. At appropriate assay times, 0.5 mL well-vortexed aliquots are removed from sample tubes and added to glass test tubes containing 4.5 mL Letheen Neutralizing Broth media (Berton, Dickinson and Company, Sparks, Md.). After a previously determined, validated neutralizing time period, these samples are diluted 10-fold through serial dilutions using glass test tubes containing 4.5 mL Letheen Neutralizing Broth media. Aliquots of 0.1 mL are removed from each dilution tube and spread-plate applied to agar plates containing Sabouraud Dextrose Agar (SAB)(Berton, Dickinson and Company, Sparks, Md.). 10^1 to 10^4 CFU/mL survivor levels are quantitated. […]

[2] = system: Fusarium solani, ATCC 36031; experiment: Microbiology challenge test, log drop; format: cell-based; conditions: for Log drop at 6 hour: Table 6: Myristylamine 0.001 % w/w
Description: as §1, §2, §3, §4, §5

[3] = system: Pseudomonas aeruginosa, ATCC 9027; experiment: Microbiology challenge test, log drop; format: cell-based; conditions: for Log drop at 6 hour: Table 6: Myristylamine 0.001 % w/w
Description: as §1, §2, §3, §4, §5

[4] = system: Serratia marcescens, ATCC 13880; experiment: Microbiology challenge test, log drop; format: cell-based; conditions: for Log drop at 6 hour: Table 6: Myristylamine 0.001 % w/w
Description: as §1, §2, §3, §4, §5

[5] = system: Staphylococcus aureus, ATCC 6538; experiment: Microbiology challenge test, log drop; format: cell-based; conditions: for Log drop at 6 hour: Table 6: Myristylamine 0.001 % w/w
Description: as §1, §2, §3, §4, §5

[6] = Contact lens uptake: content left in solution after shaking with lenses; format: physicochemical; conditions: Myristylamine with TPGS 20 fold
Description: The results in Table 9A show the remaining quaternary ammonium and tertiary amine content left in solution after a 15 ml-solution-2 lenses closed system has been shaken for 6 days at room temperature. […] The control which was run for this experiment, which includes the remaining ingredients in the solutions referenced in Table 9A are listed in Table 9B. As one of ordinary skill in the art would realize, the less quaternary ammonium or tertiary amine content remaining in solution after the shaking period, the higher the absorption by the lenses.

[7] = Solubility in aqueous media; format: physicochemical
[8] = Table 2A: Myristylamine 0.0003 % w/w, Tetronic 1307 0.05, pH 7.8
[9] = Table 2A: Myristylamine 0.0005 % w/w, Tetronic 1307 0.05, pH 7.8
[10] = Table 3: Myristylamine 0.0005 w/v % with WSCP 0.001, NaClO2 0.01, NaCitrate 0.4, T1307 0.05
[11] = Table 3: Myristylamine 0.0005 w/v %, WSCP 0.0, NaClO2 0.0, NaCitrate 0.0, T1307 0.05
[12] = Table 4: Myristylamine 0.0003 w/v % with PHMB 0.00003, Tetronic 1107 0.05, pH 7.8
[13] = Table 4: Myristylamine 0.0003 w/v %, PHMB 0, Tetronic 1107 0.05, pH 7.8
[14] = Table 5: Myristylamine 0.0005 w/v % with Polyquaternium-1 0.001, NaCitrate 0.6, Tetronic 1304 0.05, pH 7.8
[15] = Tween 80 0.0074, Polyquaternium-1 0, pH 7.3, 6 hour
[16] = Tween 80 0.0074, with Polyquaternium-1 0.000075, pH 7.3, 6 hour

CCCCCCCCCCCCCCN [Myristylamine]
Log Drop [1, 8]: 3.67 | Log Drop [1, 9]: 4.41 | Log Drop [1, 10]: 2.95 | Log Drop [1, 11]: 3.29 | Log Drop [1, 12]: 3.31 | Log Drop [1, 13]: 3.67 | Log Drop [1, 14]: 4.52 | Log drop at 6 hour [1, 15]: >4.67 | Log drop at 6 hour [1, 16]: >4.67 | antimicrobial activity against C. albicans ([1]; result in words, Table 2A data): strong antimicrobial activity against C. albicans | Log Drop [2, 8]: >4.34 | Log Drop [2, 9]: >4.34 | Log Drop [2, 10]: >4.34 | Log Drop [2, 11]: >4.34 | Log Drop [2, 12]: >4.34 | Log Drop [2, 13]: >4.34 | Log Drop [2, 14]: >4.34 | Log drop at 6 hour [2, 15]: 3.73 | Log drop at 6 hour [2, 16]: 3.12 | Log Drop [3, 8]: >4.63 | Log Drop [3, 9]: >4.63 | Log Drop [3, 10]: >4.63 | Log Drop [3, 11]: >4.63 | Log Drop [3, 12]: >4.63 | Log Drop [3, 13]: >4.63 | Log Drop [3, 14]: >4.63 | Log drop at 6 hour [3, 15]: >4.58 | Log drop at 6 hour [3, 16]: >4.58 | Log Drop [4, 8]: 1.18 | Log Drop [4, 9]: 2.6 | Log Drop [4, 10]: 3.1 | Log Drop [4, 11]: 1.68 | Log Drop [4, 12]: 3.46 | Log Drop [4, 13]: 1.18 | Log Drop [4, 14]: 3.64 | Log drop at 6 hour [4, 15]: 1.19 | Log drop at 6 hour [4, 16]: 3.12 | Log Drop [5, 8]: 2.87 | Log Drop [5, 9]: 4.8 | Log Drop [5, 10]: 3.74 | Log Drop [5, 11]: 2.93 | Log Drop [5, 12]: 4.21 | Log Drop [5, 13]: 2.87 | Log Drop [5, 14]: 4.69 | Log drop at 6 hour [5, 15]: 1.04 | Log drop at 6 hour [5, 16]: 3.21 | remaining content left in solution, Acuvue ([6]; 15 ml solution, 2 Acuvue lenses, closed system shaken 6 days at room temperature): 34.1 ppm | remaining content left in solution, Purevision ([6]; 15 ml solution, 2 Purevision lenses, closed system shaken 6 days at room temperature): 13.0 ppm | remaining content left in solution, Without Lens ([6]; 15 ml system without lenses, shaken 6 days at room temperature): 37.9 ppm | solubility in aqueous solution with acid and surfactant ([7]; acid and surfactant containing an alkyl chain coexist, solution pH below 6): may be dissolved in an aqueous solution | solubility in acid ([7]; ambient temperature, solution pH below 2): insoluble in acid at ambient temperature | solubility in water ([7]; water or basic solution): does not dissolve in water or in a basic solution
